Results on one compound are retold here after paper PMC5826917, “A small molecule inhibitor of Nicotinamide N-methyltransferase for the treatment of metabolic disorders” (Scientific Reports, 2018).

Each structure is given as a SMILES string.

In general, IC50 refers to the concentration that inhibits the measured activity by half. As a reminder, the fraction remaining is what is left of the initial amount, in per cent. Read a high fraction remaining as greater stability.

One data set has as its system plasma MNA levels. As to the method: (§1) Samples for MNA were analyzed employing a fit-for-purpose LC-MS/MS method. PE-Sciex API-4000 triple quadrupole (PerkinElmerSciex Instruments, Boston, MA) mass spectrometer was employed for this analysis. Samples (5 µL) were injected onto Kinetex HILIC (50 × 4.6 mm, 2.6 µm; Phenomenex, Torrance, CA, USA) column connected to Shimadzu VP (Shimadzu, Japan) LC system. The gradient mobile phase mixture of 0.2% formic acid and acetonitrile was delivered at a flow rate of 0.45 ml min-1 into the mass spectrometer electrospray ionization (ESI) chamber. Quantitation was achieved by MS/MS detection in positive ion mode for MNA and internal standard (d4–MNA). Detection of the ions was performed in the multiple reaction monitoring (MRM) mode, monitoring the transition of the m/z 137 precursor ion to the m/z 92 product ion for MNA and m/z 141 precursor ion to the m/z 84 product ion for d4-MNA (internal standard).
A simple protein precipitation extraction method was followed for extraction of N-methylnicotinamide from plasma and various tissue homogenate samples. The tissue samples were homogenized with 1:3 proportions of phosphate buffer saline (PBS) and this homogenate was used for N-Methylnicotinamide determinations. […] The supernatant was separated and transferred to pre-labeled HPLC vials and analyzed by LC-MS/MS system.

The next data set deals with T1, mouse NNMT (mNNMT) (Mus musculus, UniProt O55239).
T1 construct: The full length NNMT proteins (1–264 amino acids) of human & mouse; 6 × His tag (N); TEV cleavage site (ENLYFQG) (N); made in house; host or cells: E. coli Rosetta2(DE3)pLysS
T1 sequence (O55239 whole entry, the tested form may be a part): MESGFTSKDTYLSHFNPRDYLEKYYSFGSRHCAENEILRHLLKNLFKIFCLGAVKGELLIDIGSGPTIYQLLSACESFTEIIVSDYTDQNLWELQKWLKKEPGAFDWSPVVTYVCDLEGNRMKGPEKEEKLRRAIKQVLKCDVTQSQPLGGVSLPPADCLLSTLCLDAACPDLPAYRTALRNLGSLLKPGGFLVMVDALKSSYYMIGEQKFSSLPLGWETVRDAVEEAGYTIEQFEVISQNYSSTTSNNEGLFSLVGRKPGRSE
As to the kind of experiment: Fluorescence based NNMT enzymatic assay (mouse). The following applies: fluorescence based biochemical assay. As for the experimental part:
(§2) NNMT activity was measured with the fluorescence enzymatic assay[22],[23]. MNA formed in the NNMT reaction reacts with acetophenone in the presence of KOH and formic acid and forms a fluorescent product 2, 7- naphthyridine. JBSNF-000088 was screened using human, mouse and monkey NNMT enzymes. Different concentrations of inhibitors were preincubated along with the enzyme for 30 minutes at room temperature. Reaction was initiated by addition of SAM and nicotinamide mixture (7 µM, 20 µM, 8 µM SAM and 6 µM, 20 µM, 9 µM nicotinamide for human, mouse and monkey NNMT assays respectively) for 60 minutes at 37 °C. The final assay reaction mixture contained a buffer of 100 mM Tris Hcl pH 7.5, 0.04% BSA, 2 mM dithiothreitol and 1% DMSO. At the end of the incubation, the reaction was stopped by the addition of ethanol: acetophenone mix (75% ethanol: 25% acetophenone) and 5 M potassium hydroxide prepared with 50% ethanol. The reaction was incubated for 15 minutes following which 100 µL of 60% formic acid was added. […] The fluorescent product 2, 7- naphthyridine was measured using a Tecan reader with excitation at 375 nm and emission at 430 nm. The IC50 values were determined by fitting the inhibition curves (percent inhibition versus inhibitor concentration) using a four parametric sigmoidal dose response using GraphPad Prism software.

Another data set deals with T2, human NNMT (hNNMT) (Homo sapiens, UniProt P40261).
T2 construct: The full length NNMT proteins (1–264 amino acids) of human & mouse; 6 × His tag (N); TEV cleavage site (ENLYFQG) (N); made in house; host or cells: E. coli Rosetta2(DE3)pLysS
T2 sequence (P40261 whole entry, the tested form may be a part): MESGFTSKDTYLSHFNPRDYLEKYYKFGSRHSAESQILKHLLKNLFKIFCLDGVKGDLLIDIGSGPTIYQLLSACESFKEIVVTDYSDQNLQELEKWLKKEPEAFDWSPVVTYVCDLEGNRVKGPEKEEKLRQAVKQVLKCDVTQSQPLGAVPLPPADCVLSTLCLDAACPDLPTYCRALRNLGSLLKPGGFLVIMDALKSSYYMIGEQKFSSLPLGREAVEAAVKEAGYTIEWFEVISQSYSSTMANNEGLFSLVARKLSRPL
Put plainly: Fluorescence based NNMT enzymatic assay (human). The following applies: fluorescence based biochemical assay. As to the method:
as §2

The conditions of data set [1]: C57BL/6, mouse, in vivo, iv.
The next data set is described as follows: in vitro. The following applies: mouse, microsomes, Metabolic stability mouse microsomes (% remaining).
For data set [2], the system named is mice with diet-induced obesity (DIO). As to the kind of experiment: Chronic efficacy study in diet-induced obesity (DIO) mice. It counts as in vivo, C57BL6/N mice. As for the experimental part: as §1
A simple protein precipitation extraction method was followed for extraction of N-methylnicotinamide from plasma and various tissue homogenate samples. The tissue samples were homogenized with 1:3 proportions of phosphate buffer saline (PBS) and this homogenate was used for N-Methylnicotinamide determinations. To an aliquot of ~50 μL of plasma/ liver homogenate/ adipose tissue homogenate samples ~300 µl of acetonitrile containing IS (d4-MNA) solution was added, followed by vortex for ~3 minutes and centrifuged for 10 minutes at 14,000 rpm. The supernatant was separated and transferred to pre-labeled HPLC vials and analyzed by LC-MS/MS system.
Male C57BL6/N (Vivo Bio Tech Ltd, India), ob/ob (B6.V-Lepob/OlaHsd) and its lean control (Envigo laboratories Inc, USA) and db/db (BKS.Cg- + Leprdb/ + Leprdb/OlaHsd) and its lean control (Envigo laboratories Inc, USA) were housed in individually ventilated cages (n = 5/cage) under standard laboratory conditions. The study room environment was maintained at a temperature of 21–24 °C and, relative humidity at 40–70%. The animal rooms were maintained under 12 h light and dark cycle. Animals were provided with ad libitum access to water and food (except where noted otherwise, e.g. during fasting prior for glucose tolerance tests, fasting prior to terminal sacrifice). Animals were acclimatized for 1 week before initiation of studies. For Diet induced obesity (DIO) mice study, C57BL6/N mice were maintained on rodents chow diet (Teklad; Harlan) or HFD (60% Kcal; Research diet) for 14 weeks before study initiation and throughout the study period. ob/ob and db/db mice and their lean controls were maintained on rodents chow diet (Teklad; Harlan). All the experiments were approved by Institutional Animal Ethics Committee (IAEC) of Jubilant Biosys Ltd, India.
Lean control + Vehicle and HFD + Vehicle Control groups (G1 and G2) mice were administered with vehicle. Dose formulations of HFD + JBSNF-000088, 50 mg kg^−1, po, bid were administered at dose volume of 5 mL kg^−1 body weight to G3 mice. Similar pattern was followed for ob/ob mice and db/db mice studies. The dose volume for individual animals was calculated based on the most recently recorded body weight during the study period. […] Cage side observations of animals for visible clinical signs, was carried out once daily throughout the study period. Individual animal body weights were recorded twice weekly during the study period.
The ob/ob mice were 12 weeks of age at the start of the study and db/db mice were 8 weeks of age at the start of the study. DIO mice were 20 weeks of age at the start of the study. In each study, non-diabetic lean mice comprised the control group which received vehicle (0.5% w/v HEC and 0.5% v/v Tween 80) and obese or diabetic mice were randomly assigned to two groups based on body weight and unfasted glucose which received either vehicle (0.5% w/v HEC and 0.5% v/v Tween 80) or JBSNF-000088, 50 mg kg^−1, po, bid for 30 days.

The next data set deals with Cl- Channel. Put plainly: Selectivity panel: Cl- channel. It is filed as binding. The note with it: 10 µM.
The target of data set [3] is Adrenoreceptor alpha 2A (ADRA2A) (Homo sapiens, UniProt P08913). As to the kind of experiment: Selectivity panel: ADRA2A. It is filed as cell-based. As for the experimental part:
Supplement 41598_2018_22081_MOESM1_ESM.docx, table 2: Supplementary table 2: Selectivity profile of JBSNF-000088 (at 10 µM) vs a panel of 34 receptors, channels and enzymes. | column: E% (agonistic); I% (antagonistic or inhibitory)

Sequence of Adrenoreceptor alpha 2A (ADRA2A) (P08913 whole entry): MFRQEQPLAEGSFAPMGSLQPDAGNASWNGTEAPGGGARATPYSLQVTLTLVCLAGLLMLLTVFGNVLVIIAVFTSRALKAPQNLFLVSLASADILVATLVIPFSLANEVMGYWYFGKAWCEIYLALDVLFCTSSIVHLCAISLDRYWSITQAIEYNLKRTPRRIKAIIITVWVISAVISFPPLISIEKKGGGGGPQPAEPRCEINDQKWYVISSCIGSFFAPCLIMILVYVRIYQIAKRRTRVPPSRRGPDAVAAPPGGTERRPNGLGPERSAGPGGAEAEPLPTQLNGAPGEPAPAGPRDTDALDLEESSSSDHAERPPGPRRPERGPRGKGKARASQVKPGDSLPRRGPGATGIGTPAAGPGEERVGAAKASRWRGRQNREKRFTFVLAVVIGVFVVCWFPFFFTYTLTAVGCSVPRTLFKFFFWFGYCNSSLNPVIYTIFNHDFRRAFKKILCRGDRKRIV

As to `COc1ccc(C(N)=O)cn1` [JBSNF-000088, 6-methoxynicotinamide], the “plasma MNA levels” value with plasma MNA levels (50 mg kg^−1 orally, C57BL/6 mice, till 4 h post dosing) is on record as “Significant reductions”. For the same compound, the “reduction of plasma MNA levels” value with plasma MNA levels (Discussion statement) was ~ 50%. On mouse NNMT (mNNMT), this compound returned an IC50 of 5 µM. In addition, the IC50 at human NNMT (hNNMT) is 1.8 µM. Moreover, the “plasma clearance as share of hepatic blood flow in mice” value in data set [1] is recorded as “approximately 25%”. The share remaining at 0.5 h in the data set “in vitro” is > 70%. Further, the “body weight (%)” value in data set [2] (50 mg kg^−1 b.i.d. p.o., four weeks, vs vehicle) is given as “statistically significant reduction”. The cumulative food intake result in data set [2] (50 mg kg^−1 b.i.d. p.o., vs vehicle) is on record as “comparable”. In addition, the fed plasma insulin result in data set [2] (day 14, p < 0.01 vs HFD control) is on record as “trend to a reduction in fed plasma insulin that was statistically significant on day 14”. Also, the fed blood glucose entry in data set [2] (day 21, p < 0.01 vs vehicle control) is on record as “statistically significant reduction”. Besides, in data set [2] (day 28, normalized to chow control group), the oral glucose tolerance result was “statistically significant improvement”. Further, the “AUC blood glucose (OGTT)” value in data set [2] (day 28, p < 0.001 vs HFD control) is recorded as “Significantly lower”. In addition, in data set [2] (p < 0.0001 vs HFD control), the “MNA levels in visceral WAT” value was “statistically significant reduction”; the “plasma insulin at 0 and 15 minutes of OGTT” value is reported as “statistically significant lower”. The HOMA-IR index entry in data set [2] (p < 0.0001 vs vehicle-treated HFD controls) is “statistically significant improvement”. Moreover, the plasma triglyceride result in data set [2] (p < 0.001 vs HFD control, data not shown) was “statistically significant reduction”. The liver triglyceride result in data set [2] (p < 0.05 vs HFD control, data not shown) was “statistically significant reduction”. In the data set with Cl- Channel, the “I% (antagonistic or inhibitory), Cl- Channel” value turned out to be 8%. In data set [3] (10 µM), the “E% (agonistic), ADRA2A” value is 4%. For the same compound, in data set [3] (read-out: I% (antagonistic or inhibitory), ADRA2A), the inhibition at 10 µM is -12%.
